This passage reports IC50 results from patent US9862711B2, “Pyrazine derivatives as phosphatidylinositol 3-kinase inhibitors” (NOVARTIS AG, priority 2014, dated 2018).

By IC50 is commonly meant the point on the concentration scale where inhibition reaches its midpoint.

Each structure is given as a SMILES string.

Sequence of PI 4-kinase beta (Q9UBF8 whole entry): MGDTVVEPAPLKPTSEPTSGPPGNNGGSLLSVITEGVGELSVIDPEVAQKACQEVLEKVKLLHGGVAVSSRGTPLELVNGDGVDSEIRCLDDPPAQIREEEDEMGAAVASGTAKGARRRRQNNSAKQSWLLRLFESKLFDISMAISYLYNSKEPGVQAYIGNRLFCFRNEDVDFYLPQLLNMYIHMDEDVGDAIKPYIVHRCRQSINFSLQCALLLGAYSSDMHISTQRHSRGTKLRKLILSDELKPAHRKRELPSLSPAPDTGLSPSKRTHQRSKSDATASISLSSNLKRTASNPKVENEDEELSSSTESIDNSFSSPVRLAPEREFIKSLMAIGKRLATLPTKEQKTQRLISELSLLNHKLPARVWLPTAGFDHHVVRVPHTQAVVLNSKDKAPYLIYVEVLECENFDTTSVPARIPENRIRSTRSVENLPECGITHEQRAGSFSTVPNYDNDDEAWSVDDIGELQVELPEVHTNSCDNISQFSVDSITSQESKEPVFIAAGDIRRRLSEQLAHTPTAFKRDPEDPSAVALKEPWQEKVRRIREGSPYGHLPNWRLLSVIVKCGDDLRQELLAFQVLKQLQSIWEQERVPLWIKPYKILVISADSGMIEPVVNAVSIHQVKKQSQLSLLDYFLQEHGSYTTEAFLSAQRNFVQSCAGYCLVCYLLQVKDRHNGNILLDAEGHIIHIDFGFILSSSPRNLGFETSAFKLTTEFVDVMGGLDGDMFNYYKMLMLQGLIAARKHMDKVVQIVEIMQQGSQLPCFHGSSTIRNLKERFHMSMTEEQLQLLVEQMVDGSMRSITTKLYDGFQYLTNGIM

The assay addresses PI 4-kinase beta (Homo sapiens (Human), UniProt Q9UBF8). The experiment in a line: Kinase Glo Luminescent Kinase Assay (Assay D). It is filed as biochemical. The conditions noted are these: 1 μM ATP, read-out: Assay D PI4Kβ IC50. The source says: Kinase Glo Luminescent Kinase Assay (Kglo) for PI 3-Kinase Alpha (A), Pb 3-Kinase Beta (B), Vps34 (C), PI 4-Kinase Beta (D)
The luminescence-based ATP detection reagent KinaseGlo was obtained from Promega, (Cat. No. V6714, Lot No. 236161) through Catalys, Wallisellen, Switzerland. L-alpha-phosphatidylinositol (PI, liver, bovine) was obtained from Avanti Polar Lipid (Cat. No. 840042C, Lot#LPI-274), Phosphatidylinositol-4,5-bisphosphate (PIP(4,5)2) was also obtained from Avanti Polar Lipid (Cat. No. 840046X). L-α-Phosphatidylserine (PS) was obtained from Avanti Polar Lipid (Cat. No. 840032C), n-Octylglucoside from Avanti Polar Lipid (Cat. No. 10634425001). Luminescence is a well established readout to determine ATP concentrations and can thus be used to follow the activity of many kinases regardless of their substrate. The Kinase Glo Luminescent Kinase Assay (Promega, Madison/WI, USA) is a homogeneous HTS method of measuring kinase activity by quantifying the amount of ATP remaining in solution following a kinase reaction.
50 nL of compound dilutions were dispensed onto black 384-well low volume Non Binding Styrene (NBS) plates (Costar Cat. No. NBS#3676). L-α-phosphatidylinositol (PI), provided as 10 mg/ml solution in methanol, was transferred into a glass tube and dried under a nitrogen beam. It was then resuspended in 3% OctylGlucoside (1-O-n-octyl-beta-D-glucopyranoside) by vortexing and stored at 4° C. 5 μL of a mix of PI/OctylGlucoside with the PI 3-kinase alpha and PI 3-kinase beta subtypes, or Vps34 or PI 4-kinase beta were added. Kinase reactions were started by the addition of 5 μl of an ATP-mix containing in a final volume 10 μL 10 mM TRIS-HCl pH 7.5, 3 mM MgCl2, 50 mM NaCl, 0.05% CHAPS, 1 mM DTT and 1 μM ATP at room temperature. Reactions were stopped with 10 μl of KinaseGlo and plates were read 10 mins later in a Synergy2 reader using an integration time of 0.1 seconds per well. 2.5 μM of NVP-BGT226 (1-(3-(trifluoromethyl)-4-(piperazin-1-yl)phenyl)-8-(6-methoxypyridin-3-yl)-3-methyl-1H-imidazo[4,5-c]quinolin-2(3H)-one) was added to the assay plates to generate the 100% inhibition of the kinase reaction, and the 0% inhibition was given by the solvent vehicle (90% DMSO in water). (1-(3-(trifluoromethyl)-4-(piperazin-1-yl)phenyl)-8-(6-methoxypyridin-3-yl)-3-methyl-1H-imidazo[4,5-c]quinolin-2(3H)-one) was used as a reference compound and included in all assay plates in the form of 16 dilution points in duplicate.
IC50 values of the percentage inhibition of each compound at 8 concentrations (10, 3.0, 1.0, 0.3, 0.1, 0.030, 0.010 and 0.003 μM) n=2 were derived by fitting a sigmoidal dose-response curve to a plot of assay readout over inhibitor concentration as described. All fits were performed with the program XLfit4 (ID Business Solutions, Guildford, UK).
In the case of `Cc1ncc(-c2cncc(-c3cc(S(=O)(=O)NCCCO)ccc3C)n2)s1` [Example 1, N-(3-Hydroxy-propyl)-4-methyl-3-[6-(2-methyl-thiazol-5-yl)-pyrazin-2-yl]-benzenesulfonamide], the IC50 is > 9.1 µM.
As for `Cc1ccc(S(=O)(=O)NCC(C)(C)O)cc1-c1cncc(-c2cn(C)nc2C)n1` [Example 2, 3-[6-(1,3-Dimethyl-1H-pyrazol-4-yl)-pyrazin-2-yl]-N-(2-hydroxy-2-methyl-propyl)-4-methyl-benzenesulfonamide], the figure is > 9.78 µM.
As for `Cc1ccc(S(=O)(=O)NCCC(C)(C)O)cc1-c1cncc(-c2cn(C)nc2C)n1` [Example 3, 3-[6-(1,3-Dimethyl-1H-pyrazol-4-yl)-pyrazin-2-yl]-N-(3-hydroxy-3-methyl-butyl)-4-methyl-benzenesulfonamide], the figure is > 9.55 µM.
Take `Cc1ccc(S(=O)(=O)NCC2(C)COC2)cc1-c1cncc(-c2cn(C)nc2C)n1` [Example 4, Trans 3-[6-(1,3-Dimethyl-1H-pyrazol-4-yl)-pyrazin-2-yl]-4-methyl-N-(3-methyl-oxetan-3-ylmethyl)-benzenesulfonamide]: the IC50 was > 10 µM.
As for `Cc1ncc(-c2cncc(-c3cc(S(=O)(=O)N[C@H]4CC[C@H](O)CC4)ccc3C)n2)s1` [Example 5, Trans N-(4-Hydroxycyclohexyl)-4-methyl-3-(6-(2-methylthiazol-5-yl)pyrazin-2-yl)benzenesulfonamide], the IC50 is > 9.1 µM.
Then `Cc1ccc(S(=O)(=O)NCC(C)(C)CO)cc1-c1cncc(-c2cn(C)nc2C)n1` [Example 8, 3-[6-(1,3-Dimethyl-1H-pyrazol-4-yl)-pyrazin-2-yl]-N-(3-hydroxy-2,2-dimethyl-propyl)-4-methyl-benzenesulfonamide], with > 9.55 µM; and `Cc1ccc(S(=O)(=O)NCCC(C)(C)O)cc1-c1cncc(-c2cnn(CCN3CCOCC3)c2)n1` [Example 9, N-(3-Hydroxy-3-methyl-butyl)-4-methyl-3-{6-[1-(2-morpholin-4-yl-ethyl)-1H-pyrazol-4-yl]-pyrazin-2-yl}-benzenesulfonamide], with > 9.1 µM.
As for `Cc1ccc(S(=O)(=O)NCCC(C)(C)O)cc1-c1cncc(-c2cn(CCN3CCOCC3)nc2C)n1` [Example 10, N-(3-Hydroxy-3-methyl-butyl)-4-methyl-3-{6-[3-methyl-1-(2-morpholin-4-yl-ethyl)-1H-pyrazol-4-yl]-pyrazin-2-yl}-benzenesulfonamide], the figure is > 10 µM; as for `Cc1ccc(S(=O)(=O)N[C@H]2CC[C@H](O)CC2)cc1-c1cncc(-c2cccnc2)n1` [Example 11, Trans N-(4-Hydroxy-cyclohexyl)-4-methyl-3-(6-pyridin-3-yl-pyrazin-2-yl)-benzenesulfonamide], > 9.1 µM.
